From PMC5908160, “Inhibition of sperm motility in male macaques with EP055, a potential non-hormonal male contraceptive” (PLoS ONE, 2018)

Experiment: Blood constituents and health monitoring in rhesus males after EP055 infusion
Assay type: in vivo, Macaca mulatta
Parameters: Hematocrit: unit not given here
Excerpt: The physical and behavioral condition of animals are monitored daily at ONPRC. Additional monitoring by Division of Comparative Medicine and/or clinical veterinary staff was provided immediately, at 1 hr, 2 hr and 6 hr post-administration of the contraceptive compound, and daily for up to 30 days after the final drug injection. Criteria used to assess animal health and welfare include: stool and urine quality and quantity, appetite and attitude (bright and alert, quiet, lethargic), pain (not eating, not moving, hunched over, lethargy/disinterest), vomiting, diarrhea, nausea, dehydration (unkempt coat, lack of urine production), and signs of wounds of injury. In addition, the ONPRC Standardized Pain Scoring system is used post-surgically to monitor an animal’s progress and improvement over time. Major criteria include animal appearance, posture, activity (including stool and urine production), vocalization and atypical behaviors.
Prior to infusion of EP055, each male was sedated with ketamine by the surgical staff at ONPRC and transported to the operating room. After positioning in dorsal recumbency, the male was intubated and placed under inhalant (isoflurane) anesthesia. Bilateral intravenous catheters were placed in cephalic veins, one for infusion and one for back-up. A percutaneous arterial line was placed in the right femoral artery for direct blood pressure measurement. Invasive blood pressure, heart rate, SpO2, and respirations were monitored by the surgical staff throughout the procedure. Initially, the low doses of EP055 in 5% DMSO-PBS 7.6 was infused by i.v. at 75-80 mg/kg, using a Medfusion 3500 pump (Smiths Medical, St. Paul, MN), and was started at a low flow rate ([…]). In 3 of 4 males, a 5-10% increase in blood pressure and heart rate were noted within the first 2-3 minutes of infusion of EP055. In these cases, the infusion was temporarily suspended until these parameters subsequently declined to normal. The infusion rate was then doubled to 1.2 ml/kg/min after 5-10 minutes and the final volume of EP055 infusate was administered. Blood pressure and heart rate remained normal throughout the rest of the infusion interval. The total volume of EP055 infusate ranged from 72 ml – 136 ml, depending upon the weight of the animal, and the duration of infusion was 10-13 minutes. Following completion of the infusion, all animals recovered normally. Animals were monitored by clinical veterinary staff immediately, at 1 hr, 2 hr and 6-8 hr post-infusion, and daily for up to 30 days after the final infusion of EP055. […] Two weeks after the infusion of the low dose and collection of the next set of baseline semen samples, males were infused with the high dose of EP055 (125-130 mg/kg) as described above, and monitored similarly.
Blood was collected from the brachial vein at the time of each semen collection, and used to determine complete blood counts and serum biochemistry tests (including electrolytes, glucose, lipids, proteins, enzymes and metabolic by-products) as performed in the Clinical Pathology Laboratory in the Division of Comparative Medicine at ONPRC.

[1] = post high dose 125–130 mg/kg, 6-8 hrs
[2] = post high dose 125–130 mg/kg, 28-30 hrs
[3] = post high dose 125–130 mg/kg, 78 hr
[4] = post low dose 75–80 mg/kg, 6-8 hrs

COC(=O)NNc1nc(Nc2ccc(NC(C)=O)c(O)c2)nc(SCC(=O)O)n1 [EP055]
increase in blood pressure and heart rate (3 of 4 males, first 2-3 minutes of low dose infusion (75-80 mg/kg)): 5-10% | blood constituents versus baseline levels (after low or high dose): no clinically significant difference | side effects, monitoring of blood and organ function (during and after drug administration): no indications of any side effects or health warning signs | ALT (alanine aminotransferase) and glucose levels (during treatment): rose during treatment | adverse effects (high dose 125-130 mg/kg): no adverse effects were observed | neutrophil numbers versus reference range (2.4–9.6 x 10^3/mm^3) (high dose, 6 hrs): slightly above the high end of the reference range | long-term effects on animals (in vivo): no long- term effects | adverse effects (low dose 75-80 mg/kg, monitored up to 30 days): No adverse effects were observed | ALT [1]: 49.7 ± 3.6 U/l | AST [1]: 68.3 ± 6.8 U/l | Albumin [1]: 4.7 ± 0.1 g/dL | Alkaline Phosphatase [1]: 94.0 ± 4.8 U/l | BUN [1]: 18.8 ± 2.3 mg/dL | Basophils [1]: 0.5 ± 0.1% | CREAT [1]: 1.0 ± 0.1 mg/dL | Chloride [1]: 108.7 ± 0.3 mEq/l | Cholesterol [1]: 146.3 ± 18.1 mg/dL | Eosinophils [1]: 0.9 ± 0.1% | Erythrocytes [1]: 6.1 ± 0.2 x 10^6/mm^3 | GGT [1]: 71.0 ± 1.0 U/l | GLUC [1]: 101.3 ± 10.2 mg/dL | Hematocrit [1]: 45.2 ± 1.0 | Hemoglobin [1]: 14.7 ± 0.4 g/dL | Leukocytes [1]: 12.3 ± 1.8 x 10^3/mm^3 | Lymphocytes [1]: 21.6 ± 9.9% | MCH [1]: 24.2 ± 0.4 pg/cell | MCHC [1]: 32.5 ± 0.1 g/dL | MCV [1]: 74.5 ± 1.1 fl/cell | Magnesium [1]: 2.2 ± 0.1 mg/dL | Monocytes [1]: 5.2 ± 0.4% | Neutrophils [1]: 10.3 ± 1.4 x 10^3/mm^3 | Phosphorus [1]: 5.2 ± 0.4 mg/dL | Platelets [1]: 298.3 ± 39.0 x 10^6 | Potassium [1]: 4.0 ± 0.1 mEq/l | Sodium [1]: 147.7 ± 0.6 mEq/l | Total Bilirubin [1]: 0.2 ± 0.1 mg/dL | Total Protein [1]: 7.6 ± 0.2 g/dL | Triglycerides [1]: 84.3 ± 19.8 mg/dL | ALT [2]: 74.0 ± 10.8 U/l | AST [2]: 83.3 ± 14.3 U/l | Albumin [2]: 4.7 ± 0.1 g/dL | Alkaline Phosphatase [2]: 95.7 ± 3.6 U/l | BUN [2]: 15.3 ± 2.4 mg/dL | Basophils [2]: 0.5 ± 0.1% | CREAT [2]: 1.0 ± 0.0 mg/dL | Chloride [2]: 108.7 ± 0.6 mEq/l | Cholesterol [2]: 147.3 ± 23.4 mg/dL | Eosinophils [2]: 1.4 ± 0.1% | Erythrocytes [2]: 6.1 ± 0.2 x 10^6/mm^3 | GGT [2]: 71.3 ± 3.4 U/l | GLUC [2]: 92.0 ± 9.7 mg/dL | Hematocrit [2]: 45.9 ± 0.9 | Hemoglobin [2]: 15.0 ± 0.4 g/dL | Leukocytes [2]: 7.7 ± 1.4 x 10^3/mm^3 | Lymphocytes [2]: 32.4 ± 4.3% | MCH [2]: 24.4 ± 0.3 pg/cell | MCHC [2]: 32.7 ± 0.2 g/dL | MCV [2]: 74.8 ± 1.0 fl/cell | Magnesium [2]: 1.9 ± 0.0 mg/dL | Monocytes [2]: 5.5 ± 0.6% | Neutrophils [2]: 5.1 ±0.8 x 10^3/mm^3 | Phosphorus [2]: 3.2 ± 0.6 mg/dL | Platelets [2]: 301.7 ± 36.5 x 10^6 | Potassium [2]: 4.0 ± 0.1 mEq/l | Sodium [2]: 149.0 ± 0.0 mEq/l | Total Bilirubin [2]: 0.2 ± 0.1 mg/dL | Total Protein [2]: 7.8 ± 0.2 g/dL | Triglycerides [2]: 59.3 ± 18.5 mg/dL | ALT [3]: 53.0 ± 7.3 U/l | AST [3]: 30.0 ± 3.1 U/l | Albumin [3]: 4.8 ± 0.1 g/dL | Alkaline Phosphatase [3]: 101.5 ± 8.7 U/l | BUN [3]: 18.3 ± 2.2 mg/dL | Basophils [3]: 0.5 ± 2.3% | CREAT [3]: 1.0 ± 0.0 mg/dL | Chloride [3]: 108.5 ± 0.9 mEq/l | Cholesterol [3]: 152.0 ± 19.4 mg/dL | Eosinophils [3]: 1.4 ± 4.5% | Erythrocytes [3]: 5.8 ± 4.5 x 10^6/mm^3 | GGT [3]: 69.3 ± 3.8 U/l | GLUC [3]: 85.0 ± 8.7 mg/dL | Hematocrit [3]: 43.3 ± 4.5 | Hemoglobin [3]: 14.1 ± 2.3 g/dL | Leukocytes [3]: 9.7 ± 2.3 x 10^3/mm^3 | Lymphocytes [3]: 34.6 ± 4.5% | MCH [3]: 24.3 ± 4.5 pg/cell | MCV [3]: 74.9 ± 2.3 fl/cell | Magnesium [3]: 1.9 ± 0.1 mg/dL | Monocytes [3]: 5.6 ± 2.3% | Neutrophils [3]: 5.4 ± 1.1 x 10^3/mm^3 | Phosphorus [3]: 4.2 ± 0.8 mg/dL | Platelets [3]: 292.8 ± 48.1 x 10^6 | Potassium [3]: 4.4 ± 0.2 mEq/l | Sodium [3]: 149.5 ± 1.2 mEq/l | Total Bilirubin [3]: 0.1 ± 0.0 mg/dL | Total Protein [3]: 7.8 ± 0.1 g/dL | Triglycerides [3]: 68.0 ± 10.6 mg/dL | ALT [4]: 44.8 ± 2.0- U/l | AST [4]: 49.8 ± 3.1 U/l | Albumin [4]: 4.7 ± 0.0 g/dL | Alkaline Phosphatase [4]: 129.8 ± 19.2 U/l | BUN [4]: 17.2 ± 1.9 mg/dL | Basophils [4]: 0.6 ± 0.1% | CREAT [4]: 1.0 ± 0.0 mg/dL | Chloride [4]: 109.3 ± 1.5 mEq/l | Cholesterol [4]: 154.5 ± 19.0 mg/dL | Eosinophils [4]: 1.2 ± 0.3% | Erythrocytes [4]: 5.9 ± 0.2 x 10^6/mm^3
